# From ChEMBL document CHEMBL3351303, “Discovery of Imigliptin, a Novel Selective DPP-4 Inhibitor for the Treatment of Type 2 Diabetes” (ACS Med Chem Lett, 2014)
# Tests used:
# Dipeptidyl peptidase 8 = Dipeptidyl peptidase 8 (Homo sapiens, UniProt Q6V1X1); assay: Inhibition of human recombinant DPP8 pre-incubated with compound for 15 mins before substrate addition by luminescence assay
# [1] = Oral bioavailability in rat at 8 mg/kg; format: ADME, organism-based; conditions: in vivo
# Dipeptidyl peptidase 9 = Dipeptidyl peptidase 9 (Homo sapiens, UniProt Q86TI2); assay: Inhibition of human recombinant DPP9 pre-incubated with compound for 15 mins before substrate addition by luminescence assay
# Chain of Dipeptidyl peptidase 9 (Q86TI2 whole entry): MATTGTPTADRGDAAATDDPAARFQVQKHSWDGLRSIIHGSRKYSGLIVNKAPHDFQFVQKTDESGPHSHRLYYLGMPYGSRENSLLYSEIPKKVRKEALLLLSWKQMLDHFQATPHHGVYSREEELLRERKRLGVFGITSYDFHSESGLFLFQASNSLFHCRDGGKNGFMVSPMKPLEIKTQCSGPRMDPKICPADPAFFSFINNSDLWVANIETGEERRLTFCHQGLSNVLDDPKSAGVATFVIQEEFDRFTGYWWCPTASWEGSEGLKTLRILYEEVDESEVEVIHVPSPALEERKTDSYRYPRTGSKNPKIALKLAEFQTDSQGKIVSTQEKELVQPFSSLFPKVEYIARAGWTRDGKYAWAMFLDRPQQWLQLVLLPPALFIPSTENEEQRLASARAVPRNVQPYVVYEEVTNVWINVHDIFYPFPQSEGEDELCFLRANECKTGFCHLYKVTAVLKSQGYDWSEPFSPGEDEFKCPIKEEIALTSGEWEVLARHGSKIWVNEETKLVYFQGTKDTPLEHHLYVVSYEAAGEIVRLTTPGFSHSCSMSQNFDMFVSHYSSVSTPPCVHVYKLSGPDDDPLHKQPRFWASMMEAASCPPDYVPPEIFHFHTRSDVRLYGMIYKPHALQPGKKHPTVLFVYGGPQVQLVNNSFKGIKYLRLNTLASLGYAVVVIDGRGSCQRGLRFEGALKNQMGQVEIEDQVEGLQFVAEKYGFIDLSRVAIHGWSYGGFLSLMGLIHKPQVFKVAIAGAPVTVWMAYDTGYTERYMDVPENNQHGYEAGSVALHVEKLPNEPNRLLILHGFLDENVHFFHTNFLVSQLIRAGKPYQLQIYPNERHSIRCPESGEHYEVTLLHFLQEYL
# [2] = Clearance in rat at 4 mg/kg, iv; format: ADME, organism-based; parameters: dose 4 mg/kg, route intravenous; conditions: in vivo
# [3] = Cmax in rat at 8 mg/kg, po; format: ADME, organism-based; parameters: dose 8 mg/kg, route oral; conditions: in vivo
# [4] = AUClast in rat at 8 mg/kg, po; format: ADME, organism-based; parameters: time 0 - last, dose 8 mg/kg, route oral; conditions: plasma
# [5] = Volume of distribution at steady state in rat at 4 mg/kg, iv; format: ADME, organism-based; parameters: dose 4 mg/kg, route intravenous; conditions: in vivo, read-out: Vdss
# [6] = Half life in rat at 4 mg/kg, iv; format: ADME, organism-based; parameters: dose 4 mg/kg, route intravenous; conditions: in vivo
# [7] = Half life in rat at 8 mg/kg, po; format: ADME, organism-based; parameters: dose 8 mg/kg, route oral; conditions: in vivo
# Chain of Dipeptidyl peptidase 8 (Q6V1X1 whole entry): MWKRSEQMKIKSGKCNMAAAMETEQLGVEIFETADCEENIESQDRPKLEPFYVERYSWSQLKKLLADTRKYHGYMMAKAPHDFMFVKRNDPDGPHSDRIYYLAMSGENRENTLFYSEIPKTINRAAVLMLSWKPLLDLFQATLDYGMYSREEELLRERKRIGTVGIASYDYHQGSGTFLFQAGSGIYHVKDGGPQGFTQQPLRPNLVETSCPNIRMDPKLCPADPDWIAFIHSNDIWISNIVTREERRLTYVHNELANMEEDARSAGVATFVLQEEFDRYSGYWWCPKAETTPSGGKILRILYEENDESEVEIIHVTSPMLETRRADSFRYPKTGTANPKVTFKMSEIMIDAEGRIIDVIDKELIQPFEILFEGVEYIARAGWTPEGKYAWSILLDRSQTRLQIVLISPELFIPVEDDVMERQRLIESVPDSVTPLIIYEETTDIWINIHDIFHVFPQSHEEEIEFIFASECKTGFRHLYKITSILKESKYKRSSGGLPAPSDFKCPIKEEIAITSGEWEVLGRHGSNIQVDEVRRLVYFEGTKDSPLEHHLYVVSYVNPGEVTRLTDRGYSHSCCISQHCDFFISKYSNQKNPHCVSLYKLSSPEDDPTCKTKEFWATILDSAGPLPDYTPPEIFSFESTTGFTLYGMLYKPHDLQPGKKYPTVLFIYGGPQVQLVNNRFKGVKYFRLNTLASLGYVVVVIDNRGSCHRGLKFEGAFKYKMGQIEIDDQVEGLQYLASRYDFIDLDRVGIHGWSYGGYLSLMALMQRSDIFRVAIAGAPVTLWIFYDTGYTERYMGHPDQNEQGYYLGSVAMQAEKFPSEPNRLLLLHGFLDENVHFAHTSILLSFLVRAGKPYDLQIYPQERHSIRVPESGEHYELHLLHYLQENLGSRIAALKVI
smiles,measurement,setting,value
Cn1c(=O)n(Cc2ccccc2C#N)c2c(N3CCC[C@@H](N)C3)ncnc21,IC50,Dipeptidyl peptidase 8,> 100 µM
same,bioavailability,[1],12%
same,IC50,Dipeptidyl peptidase 9,> 100 µM
same,clearance,[2],61.2 mL/min/kg
same,Cmax,[3],86 ng/mL
same,AUC(0-t),[4],249 ng·h/mL
same,Vd,[5],2.78 L/kg
same,half-life,[6],0.8 h
same,half-life,[7],1.5 h
